Legend:
[1] = biological target: T1, Human synovial fluid phospholipase A2 (HSF-PLA2) (Homo sapiens, UniProt P14555); test: Human synovial fluid phospholipase A2 (HSF-PLA2) assay; type: biochemical; conditions: [14C]-oleate-labeled E. coli substrate, pH 7.0, 5 min pre-incubation, 37° C., 30 minutes
T1 construct: Human synovial fluid phospholipase A2 was purified approximately 5000 fold; from tissue; host or cells: human synovial fluid
T1 sequence (P14555 21-144): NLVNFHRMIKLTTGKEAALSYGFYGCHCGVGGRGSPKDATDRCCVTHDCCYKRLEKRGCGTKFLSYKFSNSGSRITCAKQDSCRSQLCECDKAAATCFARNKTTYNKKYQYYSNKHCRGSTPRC
Procedure: Human synovial fluid phospholipase A2 was purified approximately 5000 fold following the procedures of Franson et al., Lung 160, 275-284 (1982) and Fawzy et al., Bio Phys. J. 49, 533a (1986). Following purification the enzyme activity was measured by established methodology using [^14 C]-oleate-labeled, autoclaved E. coli as the substrate as also shown in the above noted references. The assay was performed in a final volume of […] containing 50 mM HEPES (pH 7.0), 150 mM NaCl, 5mM CaCl2, 7 mM [14C]-oleate-labeled E. coli phospholipid and with or without the compound from one of the examples herein undergoing an assay. The compound or control vehicle was pre-incubated with the PLA2 for 5 minutes followed by addition of the E. coli substrate to initiate the reaction. The reaction was maintained at 37° C. for 30 minutes and then terminated by the addition of 2 ml tetrahydrofuran (THF). The reaction product, [14C] -oleic acid, was extracted using a 1 ml Bond Elut NH2 Solid phase extraction column. The IC50 value for the compound (mean +/- S.E.) is given in the following Table and represents the concentration of the compound required to inhibit 50% of the PLA2 activity.

[2] = test system: LTB4 biosynthesis in HL-60 cells; test: Assay for LTB4 production by HL-60 cells (LTB4 biosynthesis inhibition); type: cell-based; conditions: Homo sapiens; differentiated HL-60 cells, 10 min pre-incubation at 37° C., 5×10^-6 M A23187 for 5 minutes, radioimmunoassay; read-out: LTB4 Biosynthesis inhibition (HL60 cells) IC50
Procedure: HL-60 cells were induced to differentiate into granulocytes by a 4 day incubation with 0.8% (v/v) N,N-dimethyl formamide as disclosed in Fontana et al., Proc. Natl. Acad. Sci. 78 (6):3863-3866 (1981); Agins et al., Biochem. Biophys. Res. Comm. 126, 143-149 (1985); and Bonser et al., Biochemistry 20: 5297-5301 (1981). Prior to performing the assay, differentiated HL-60 cells were washed once with Hanks. balanced salt solution containing 0.35 mg/ml sodium bicarbonate and 10 mM HEPES pH 7.35 (HBSS). HL-60 cells (3×10^6 cells/ml) were pre-incubated with the compound tested or a control vehicle at 37° C. for 10 minutes, followed by 5 minute incubation with 5×10^-6 M calcium ionophore A23187 in a final volume of 1.0 ml. After incubation, the cells were pelleted by centrifugation and the LTB4 and PGE2 in the supernatant were quantified by radioimmunoassay. IC50 values (means +/- S.E.) for compounds herein that were tested are shown in the following Table and represent the concentrations of the compound required to inhibit 50% of LTB4 or PGE2 production by HL-60 cells stimulated with the calcium ionophore A23187.

Structure (SMILES)	IC50 [1] [µM]	IC50 [2] [nM]
CCCCCC#CCCCCCCC#CC(O)c1cccc(C(=O)O)c1 (stereo not drawn) [Example 18]	28	–
CCCCCCCCCCCCCC#CC(O)c1ccc(C(=O)O)o1 (stereo not drawn) [Example 11]	28	2400
CCCCCCCCCCCCCC#CC(O)c1cccc(-c2nn[nH]n2)c1 (stereo not drawn) [Example 29]	42	–
CCCCCCCCCCCCCC#CC(=O)c1cccc(-c2nn[nH]n2)c1 [Example 30]	11	900
CCCCCCCCCCCCCC#CC(O)c1ccc(C(=O)O)s1 (stereo not drawn) [Example 24]	18	900
CCCCCCCCCCCCCC#CC(=O)c1cccc(C(=O)O)n1 [Example 13]	2.5	800
CCCCCCCCCCCCCC#CC(=O)c1cccc(C(=O)O)c1 [Example 4]	11	800
CCCCCCCCCCCCCC#CC(=O)c1cccc(C(=O)NS(=O)(=O)c2ccccc2)c1 [Example 27]	14	–
CCCCCCCCCCCCCC#CC(O)c1ccc(O)c(C(=O)O)c1 (stereo not drawn) [Example 16]	11	8000
CCCCCCCCCCCCCC#CC(=O)c1ccccc1C(=O)O [Example 6]	13	–
CCCCCCCCCCCCC#CC(=O)c1ccc(C(=O)O)cc1 [Example 3]	14	200
CCCCCCCCCCCCCC#CC(=O)c1ccc(C(=O)O)o1 [Example 12]	34	500
CCCCCCCCCCCCCC#CC(=O)c1ccc(C(=O)O)s1 [Example 25]	15	400
CCCCCCCCCCCCCC#CC(=O)c1ccc(O)c(C(=O)O)c1 [Example 17]	33	400

Reference: patent US5086067A, “LTB4 synthesis inhibitors” (G. D. Searle & Co., priority 1989, dated 1992)
